We go through 16 molecules from article PMC5421785, “Citrullination only infrequently impacts peptide binding to HLA class II MHC” (PLoS ONE, 2017).

Read-outs that look alike come from different tables or passages of the source. Square brackets hold non-standard residues; d marks the D form. Ends that are not written are not given here. Peptide text beside a SMILES is read from it. Cit = NC(=O)NCCC[C@H](N)C(=O)O

One assay concerns the target T1, HLA-DRB1*01:01 (Homo sapiens, UniProt P01903+P01911, A100R/D57E/F55L/F60I/F76Y/I96L/L162R/M171V/P40L/Q125E/R42F/V115G/Y59C).
T1 construct: EBV transformed homozygous cell lines were used as sources of MHC molecules; endogenous in cells; host or cells: EBV transformed homozygous cell lines
In words: HLA class II peptide binding, inhibition of radiolabeled peptide binding to purified MHC. The following applies: for DRB1*01:01 binding capacity, WT/cit ratio: ratio of WT IC50 to Cit IC50, >1 = citrullination increases binding.

Another assay deals with T2, HLA-DRB1*04:01 (Homo sapiens, UniProt P01903+P01911, A100K/A169T/F76Y/I96L/K127E/L162R/M171V/N62H/P40V/Q125Y/R42H/S133A/S149N/S66Y/V115G/V209L/W38E).
T2 construct: EBV transformed homozygous cell lines were used as sources of MHC molecules; endogenous in cells; host or cells: EBV transformed homozygous cell lines
The description is as above. The following applies: for DRB1*04:01 binding capacity, WT/cit ratio: ratio of WT IC50 to Cit IC50, >1 = citrullination increases binding.

Where [1] appears, read: citrullinated 15-mer peptide (X = citrulline), purified HLA-DRB1*01:01, read-out: DRB1*01:01 binding capacity, Cit peptide (IC50 nM).
[2] abbreviates: citrullinated 15-mer peptide (X = citrulline), purified HLA-DRB1*04:01, read-out: DRB1*04:01 binding capacity, Cit peptide (IC50 nM).
Where [3] appears, read: citrullinated 15-mer (X), purified MHC, inhibition of radiolabeled peptide binding, dash = IC50 >40,000 nM, read-out: DRB1*01:01 binding capacity, Cit peptide (IC50 nM).
Setting [4] is: citrullinated 15-mer (X), purified MHC, inhibition of radiolabeled peptide binding, dash = IC50 >40,000 nM, read-out: DRB1*04:01 binding capacity, Cit peptide (IC50 nM).
[5] abbreviates: wild-type (unmodified Arg) 15-mer peptide, purified HLA-DRB1*01:01, read-out: DRB1*01:01 binding capacity, WT peptide (IC50 nM).
[6] abbreviates: wild-type (unmodified Arg) 15-mer peptide, purified HLA-DRB1*04:01, read-out: DRB1*04:01 binding capacity, WT peptide (IC50 nM).
The mark [7] stands for this setting: read-out: DRB1*01:01 binding capacity, WT peptide (IC50 nM).
[8] abbreviates: read-out: DRB1*04:01 binding capacity, WT peptide (IC50 nM).

Regarding `C[C@H](N)C(=O)N[C@@H](CCCNC(N)=O)C(=O)NCC(=O)N[C@@H](C)C(=O)N[C@@H](CCC(N)=O)C(=O)NCC(=O)N1CCC[C@H]1C(=O)N1CCC[C@H]1C(=O)NCC(=O)N[C@@H](C)C(=O)N[C@H](C(=O)NCC(=O)N[C@@H](Cc1ccccc1)C(=O)N1CCC[C@H]1C(=O)NCC(=O)O)[C@@H](C)O` [AXGAQGPPGATGFPG] (H-A[Cit]GAQGPPGATGFPG-OH; N-terminus and C-terminus assumed), the 50% inhibitory concentration (IC50) at HLA-DRB1*01:01 (setting [1]) and on HLA-DRB1*04:01 (setting [2]) was over 40000 nM in each case. Also, the “DRB1*01:01 binding capacity, WT/cit ratio” value at HLA-DRB1*01:01 stood at 0.7. Moreover, the “DRB1*04:01 binding capacity, WT/cit ratio” value at HLA-DRB1*04:01 is reported as 1.0.
Turning to `CC[C@H](C)[C@H](NC(=O)[C@@H](N)CCSC)C(=O)N[C@@H](CCCNC(N)=O)C(=O)N[C@@H](CC(C)C)C(=O)NCC(=O)N[C@@H](C)C(=O)N1CCC[C@H]1C(=O)N[C@@H](CCC(N)=O)C(=O)N[C@H](C(=O)N[C@@H](CC(C)C)C(=O)N[C@H](C(=O)N[C@@H](CC(C)C)C(=O)N[C@@H](CC(C)C)C(=O)N[C@H](C(=O)N[C@@H](CC(C)C)C(=O)O)[C@@H](C)O)C(C)C)[C@@H](C)O` [MIXLGAPQTLVLLTL] (H-MI[Cit]LGAPQTLVLLTL-OH), the IC50 (in general, the concentration that inhibits the measured activity by half) on HLA-DRB1*01:01 (setting [1]) was found to be 15 nM; on HLA-DRB1*04:01 (setting [2]), 641 nM.
Take `CSCC[C@H](NC(=O)[C@H](CCC(=O)O)NC(=O)[C@H](CCC(=O)O)NC(=O)[C@@H](N)CCC(=O)O)C(=O)N[C@@H](CCCNC(N)=O)C(=O)N[C@@H](CCC(=O)O)C(=O)N[C@@H](CC(C)C)C(=O)N[C@@H](CCCNC(=N)N)C(=O)N[C@@H](CCCNC(=N)N)C(=O)N[C@@H](CCC(N)=O)C(=O)N[C@H](C(=O)N[C@@H](CC(=O)O)C(=O)N[C@@H](CCC(N)=O)C(=O)N[C@@H](CC(C)C)C(=O)N[C@H](C(=O)O)[C@@H](C)O)C(C)C` [EEEMXELRRQVDQLT] (H-EEEM[Cit]ELRRQVDQLT-OH): the half-maximal inhibitory concentration (IC50) was 1250 nM at HLA-DRB1*01:01 (setting [3]) and 6570 nM on HLA-DRB1*04:01 (setting [4]).
For `CC(C)C[C@H](NC(=O)[C@H](CO)NC(=O)[C@H](Cc1ccccc1)NC(=O)[C@H](CC(=O)O)NC(=O)[C@@H](NC(=O)[C@H](CO)NC(=O)[C@H](CC(=O)O)NC(=O)[C@H](CCC(N)=O)NC(=O)[C@H](CC(C)C)NC(=O)[C@H](CC(C)C)NC(=O)[C@H](CCCNC(N)=O)NC(=O)[C@@H](NC(=O)CN)C(C)C)C(C)C)C(=O)N[C@@H](C)C(=O)N[C@@H](CC(=O)O)C(=O)O` [GVXLLQDSVDFSLAD], in that order: 541 nM and 918 nM.
For the molecule `CC(C)C[C@H](NC(=O)[C@H](CCC(=O)O)NC(=O)[C@H](CCC(N)=O)NC(=O)[C@H](CC(C)C)NC(=O)[C@H](CCC(=O)O)NC(=O)[C@@H](NC(=O)[C@H](CCCCN)NC(=O)[C@H](CCC(=O)O)NC(=O)[C@H](CC(N)=O)NC(=O)[C@@H](NC(=O)[C@H](CCCNC(N)=O)NC(=O)[C@@H](NC(=O)[C@H](CC(N)=O)NC(=O)[C@H](CCCCN)NC(=O)[C@@H](N)Cc1ccccc1)[C@@H](C)O)[C@@H](C)O)C(C)C)C(=O)O` [FKNTXTNEKVELQEL] (H-FKNT[Cit]TNEKVELQEL-OH), the IC50 at HLA-DRB1*01:01 (setting [3]) was found to be 9330 nM; at HLA-DRB1*04:01 (setting [4]) it was 1140 nM.
Regarding GHRGFTGLQGLPGPP [Collagen 1131 WT], the values for the IC50 on HLA-DRB1*01:01 (setting [5]) and at HLA-DRB1*04:01 (setting [6]) were 0.77 nM and 335 nM, respectively.
For `CC(C)C[C@H](NC(=O)[C@H](C)NC(=O)[C@H](CO)NC(=O)CN)C(=O)N[C@@H](CCCNC(=N)N)C(=O)N1CCC[C@H]1C(=O)N[C@@H](CO)C(=O)N[C@H](C(=O)N[C@@H](CO)C(=O)N[C@@H](CCCNC(N)=O)C(=O)N[C@@H](CO)C(=O)N[C@@H](CC(C)C)C(=O)N[C@@H](Cc1ccc(O)cc1)C(=O)N[C@@H](C)C(=O)N[C@@H](CO)C(=O)O)[C@@H](C)O` [GSALRPSTSXSLYAS], the IC50 at HLA-DRB1*01:01 (setting [3]) came to 25 nM; at HLA-DRB1*04:01 (setting [4]), 803 nM.
Regarding `CC(C)C[C@H](NC(=O)[C@H](CC(N)=O)NC(=O)[C@H](CCCCN)NC(=O)[C@H](C)NC(=O)[C@H](C)NC(=O)[C@@H](NC(=O)[C@H](CO)NC(=O)[C@H](CCC(=O)O)NC(=O)[C@H](Cc1ccc(O)cc1)NC(=O)[C@H](CCC(N)=O)NC(=O)[C@H](CCC(N)=O)NC(=O)[C@H](CCCNC(N)=O)NC(=O)[C@@H](NC(=O)[C@@H](N)CC(=O)O)C(C)C)C(C)C)C(=O)N[C@@H](CCC(N)=O)C(=O)O` [DVXQQYESVAAKNLQ] (H-DV[Cit]QQYESVAAKNLQ-OH), the results for the IC50 on HLA-DRB1*01:01 (setting [3]) and on HLA-DRB1*04:01 (setting [4]) were 19 nM and 7760 nM, respectively.
For the molecule DGLAGPKGAPGERGP [Collagen 521 WT], the IC50 at HLA-DRB1*01:01 (setting [5]) is 2240 nM; on HLA-DRB1*04:01 (setting [6]), 36900 nM.
Consider TGPKGARGAQGPPGA [Collagen 881 WT], for which the IC50 was 17000 nM at HLA-DRB1*01:01 (setting [5]) and over 40000 nM on HLA-DRB1*04:01 (setting [6]).
Consider `C[C@H](NC(=O)CNC(=O)[C@H](C)NC(=O)[C@H](CCC(=O)O)NC(=O)CNC(=O)[C@H](CCCNC(N)=O)NC(=O)[C@H](CC(=O)O)NC(=O)CNC(=O)[C@H](CCC(N)=O)NC(=O)[C@H](CCCCN)NC(=O)CNC(=O)[C@@H](NC(=O)[C@@H]1CCCN1)[C@@H](C)O)C(=O)N[C@@H](CCC(N)=O)C(=O)NCC(=O)O` [PTGKQGDXGEAGAQG] (H-PTGKQGD[Cit]GEAGAQG-OH; N-terminus and C-terminus assumed), for which the IC50 on HLA-DRB1*01:01 (setting [1]) and on HLA-DRB1*04:01 (setting [2]) was over 40000 nM each time. For the same molecule, the “DRB1*01:01 binding capacity, WT/cit ratio” value on HLA-DRB1*01:01 stood at 0.6. Moreover, at HLA-DRB1*04:01, the “DRB1*04:01 binding capacity, WT/cit ratio” value worked out at 1.0.
On to `CC(C)C[C@H](NC(=O)[C@H](CC(N)=O)NC(=O)[C@@H](NC(=O)[C@H](CCC(=O)O)NC(=O)[C@H](CCCNC(=N)N)NC(=O)[C@H](CC(C)C)NC(=O)[C@H](CC(N)=O)NC(=O)[C@@H](N)CC(C)C)[C@@H](C)O)C(=O)N[C@@H](CC(=O)O)C(=O)N[C@@H](CO)C(=O)N[C@@H](CC(C)C)C(=O)N1CCC[C@H]1C(=O)N[C@@H](CC(C)C)C(=O)N[C@H](C(=O)N[C@@H](CC(=O)O)C(=O)O)C(C)C` [Vimentin 421 WT], for which the IC50 amounted to 96 nM on HLA-DRB1*01:01 (setting [5]) and 3740 nM on HLA-DRB1*04:01 (setting [6]).
Turning to ADLSEAANRNNDALR [Vimentin 296 WT], the figures for the 50% inhibitory concentration (IC50) on HLA-DRB1*01:01 (setting [7]) and on HLA-DRB1*04:01 (setting [8]) were 4500 nM and 13900 nM, respectively.
For `CSCC[C@H](NC(=O)[C@H](Cc1ccc(O)cc1)NC(=O)[C@H](CCC(N)=O)NC(=O)[C@H](CC(C)C)NC(=O)[C@@H]1CCCN1C(=O)[C@H](CC(=O)O)NC(=O)[C@@H]1CCCN1C(=O)CNC(=O)[C@H](CCCCN)NC(=O)[C@H](CCC(=O)O)NC(=O)[C@H](CCCNC(=N)N)NC(=O)[C@@H]1CCCN1C(=O)CNC(=O)[C@@H](N)CC(C)C)C(=O)N[C@@H](CCCNC(N)=O)C(=O)O` [LGPREKGPDPLQYMX] (H-LGPREKGPDPLQYM[Cit]-OH), the 50% inhibitory concentration (IC50) on HLA-DRB1*01:01 (citrullinated peptide as listed (X at Cit position), read-out: DRB1*01:01 binding capacity Cit peptide (IC50 nM)) is 19700 nM; on HLA-DRB1*04:01 (citrullinated peptide as listed (X at Cit position), read-out: DRB1*04:01 binding capacity Cit peptide (IC50 nM)), over 40000 nM; at HLA-DRB1*04:01 (value of the wild-type (non-citrullinated) counterpart of the listed peptide, read-out: DRB1*04:01 binding capacity WT peptide (IC50 nM)), over 40000 nM.
On to FRQDVDNASLARLDL [Vimentin 206 WT], for which the IC50 at HLA-DRB1*01:01 (setting [7]) came out at 5260 nM; on HLA-DRB1*04:01 (setting [8]), 144 nM.
On to `CC(C)C[C@H](NC(=O)[C@H](CCC(N)=O)NC(=O)[C@H](CC(=O)O)NC(=O)[C@@H](N)C(C)C)C(=O)N[C@H](C(=O)N[C@@H](CC(N)=O)C(=O)N[C@@H](CC(=O)O)C(=O)N[C@@H](CCCCN)C(=O)N[C@@H](C)C(=O)N[C@@H](CCCNC(=N)N)C(=O)N[C@H](C(=O)N[C@@H](CCC(=O)O)C(=O)N[C@H](C(=O)N[C@@H](CCC(=O)O)C(=O)N[C@@H](CCCNC(N)=O)C(=O)O)C(C)C)C(C)C)[C@@H](C)O` [VDQLTNDKARVEVEX] (H-VDQLTNDKARVEVE[Cit]-OH), for which the half-inhibitory concentration (IC50) was 7420 nM on HLA-DRB1*01:01 (setting [3]) and over 40000 nM at HLA-DRB1*04:01 (setting [4]).
